Measurements taken from patent publication US8653070B2, “Hepatitis C virus inhibitors” (Enanta Pharmaceuticals, Inc., priority 2009, dated 2014).
Where two headings read alike, the source gives them in different places.

Tested on: HCV 1b genotype replicon
Test: HCV replicon assay (qRT-PCR or luciferase), genotype-1b replicon
Format: cell-based
Conditions: Hepatitis C virus, HCV 1b replicon
Excerpt: HCV replicon cell lines (kindly provided by R. Bartenschlager) isolated from colonies as described by Lohman et. al. (Lohman et al. (1999) Science 285: 110-113, expressly incorporated by reference in its entirety) and used for all experiments. The HCV replicon has the nucleic acid sequence set forth in EMBL Accession No.: AJ242651, the coding sequence of which is from nucleotides 1801 to 8406.
The coding sequence of the published HCV replicon was synthesized and subsequently assembled in a modified plasmid pBR322 (Promega, Madison, Wis.) using standard molecular biology techniques. One replicon cell line (“SGR 11-7”) stably expresses HCV replicon RNA which consists of (i) the HCV 5′UTR fused to the first 12 amino acids of the capsid protein, (ii) the neomycin phosphotransferase gene (neo), (iii) the IRES from encephalomyocarditis virus (EMCV) and (iv) HCV NS2 to NS5B genes and the HCV 3′UTR. Another replicon cell line (“Huh-luc/neo-ET”) described by Vrolijk et. al. (Vrolijk et. al. (2003) Journal of Virological Methods 110:201-209, expressly incorporated by reference in its entirety) stably expresses HCV replicon RNA which consists of (i) the HCV 5′UTR fused to the first 12 amino acids of the capsid protein, (ii) the firefly luciferase reporter gene, (iii) the ubiquitin gene, (iv) the neomycin phosphotransferase gene (neo), (v) the IRES from encephalomyocarditis virus (EMCV) and (vi) HCV NS3 to NS5B genes that harbor cell culture adaptive mutations (E1202G, T12801, K1846T) and the HCV 3′UTR.
These cell lines are maintained at 37° C., 5% CO2, 100% relative humidity in DMEM (Cat#11965-084, Invitrogen), with 10% fetal calf serum (“FCS”, Invitrogen), 1% non-essential amino acids (Invitrogen), 1% of Glutamax (Invitrogen), 1% of 100× penicillin/streptomycin (Cat#15140-122, Invitrogen) and Geneticin (Cat#10131-027, Invitrogen) at 0.75 mg/ml or 0.5 mg/ml for 11-7 and Huh-luc/neo-ET cells, respectively.
EC50 values of single agent compounds and combinations are determined by HCV RNA detection using quantitative RT-PCR, according to the manufacturer's instructions, with a TAQMAN® One-Step RT-PCR Master Mix Reagents Kit (Cat# AB 4309169, Applied Biosystems) on an ABI Model 7500 thermocycler. The TAQMAN primers to use for detecting and quantifying HCV RNA obtained from Integrated DNA Technologies. HCV RNA is normalized to GAPDH RNA levels in drug-treated cells, which is detected and quantified using the Human GAPDH Endogenous Control Mix (Applied Biosystems, AB 4310884E). Total cellular RNA is purified from 96-well plates using the RNAqueous 96 kit (Ambion, Cat# AM1812). Chemical agent cytotoxicity is evaluated using an MTS assay according to the manufacturer's directions (Promega).
Since clinical drug resistance often develops in viral infections following single agent therapies, there is a need to assess the additive, antagonistic, or synergistic properties of combination therapies. We used the HCV replicon system to assess the potential use of the compound of the present invention or in combination therapies with Interferon alpha, cyclosporine analogs and inhibitors targeting other HCV proteins. The acute effects of a single or combinations of drugs are studied in the “Huh-luc/neo-ET” replicon with each chemical agent titrated in an X or Y direction in a 6 point two-fold dilution curve centered around the EC50 of each drug. Briefly, replicon cells are seeded at 7,000 cells per well in 90 ul DMEM (without phenol red, Invitrogen Cat.#31053-036) per well with 10% FCS, 1% non-essential amino acids, 1% of Glutamax and 1% of 100× penicillin/streptomycin and incubated overnight at 37° C., 5% CO2, 100% relative humidity. […]

[1] = read-out: Genotype-1b replicon EC50 Range
[2] = read-out: Genotype-1b replicon EC50

| SMILES | EC50 [1] [nM] | EC50 [2] [nM] |
| --- | --- | --- |
| C=C1C[C@@H](c2nc(-c3ccc(C#Cc4ccc5[nH]c([C@@H]6C[C@@]7(CCCO7)CN6C(=O)[C@@H](NC(=O)OC)C(C)C)nc5c4)cc3)c[nH]2)N(C(=O)[C@@H](NC(=O)OC)C(C)C)C1 [Example 319] | 0.01 to 1 | – |
| C=C1C[C@@H](c2nc3cc(C#Cc4ccc(-c5c[nH]c([C@@H]6CCCN6C(=O)[C@@H](NC(=O)OC)C(C)C)n5)cc4)ccc3[nH]2)N(C(=O)[C@@H](NC(=O)OC)C(C)C)C1 [Example 83] | < 0.01 | 0.0057 |
| CON=C1C[C@@H](c2nc3cc(C#Cc4ccc(-c5c[nH]c([C@@H]6CCCN6C(=O)[C@@H](NC(=O)OC)C(C)C)n5)cc4)ccc3[nH]2)N(C(=O)[C@@H](NC(=O)OC)C(C)C)C1 [Example 316] | < 0.01 | – |
| C=C1C[C@@H](c2nc(-c3ccc(C#Cc4ccc5[nH]c([C@@H]6CCCN6C(=O)[C@@H](NC(=O)OC)C(C)C)nc5c4)cc3)c[nH]2)N(C(=O)[C@@H](NC(=O)OC)C(C)C)C1 [Example 300] | < 0.01 | 0.0044 |
| C=C1C[C@@H](c2nc(-c3ccc(C#Cc4ccc5[nH]c([C@@H]6C[C@]7(CCCOC7)CN6C(=O)[C@@H](NC(=O)OC)C(C)C)nc5c4)cc3)c[nH]2)N(C(=O)[C@@H](NC(=O)OC)C(C)C)C1 [Example 329] | < 0.01 | – |
| C=C1C[C@@H](c2nc(-c3ccc(C#Cc4ccc5[nH]c([C@@H]6CC(=C)CN6C(=O)[C@@H](NC(=O)OC)C(C)C)nc5c4)cc3)c[nH]2)N(C(=O)[C@@H](NC(=O)OC)C(C)C)C1 [Example 336] | < 0.01 | 0.0064 |
| C=C1C[C@@H](c2nc(-c3ccc(C#Cc4ccc5[nH]c([C@@H]6C[C@]7(CCOC7)CN6C(=O)[C@@H](NC(=O)OC)C(C)C)nc5c4)cc3)c[nH]2)N(C(=O)[C@@H](NC(=O)OC)C(C)C)C1 [Example 323] | < 0.01 | 0.0092 |
| C=C1C[C@@H](c2nc(-c3ccc(C#Cc4ccc5[nH]c([C@@H]6CC7(CC7)CN6C(=O)[C@@H](NC(=O)OC)C(C)C)nc5c4)cc3)c[nH]2)N(C(=O)[C@@H](NC(=O)OC)C(C)C)C1 [Example 325] | < 0.01 | 0.0059 |
| C=C1C[C@@H](c2nc(-c3ccc(C#Cc4ccc5[nH]c([C@@H]6C[C@@]7(CCOC7)CN6C(=O)[C@@H](NC(=O)OC)C(C)C)nc5c4)cc3)c[nH]2)N(C(=O)[C@@H](NC(=O)OC)C(C)C)C1 [Example 321] | 0.01 to 1 | – |
| C=C1C[C@@H](c2nc(-c3ccc(C#Cc4ccc5[nH]c([C@@H]6C[C@@]7(CCCOC7)CN6C(=O)[C@@H](NC(=O)OC)C(C)C)nc5c4)cc3)c[nH]2)N(C(=O)[C@@H](NC(=O)OC)C(C)C)C1 [Example 331] | 0.01 to 1 | 0.0137 |
| C=C1C[C@@H](c2nc(-c3ccc(-c4ccc(-c5c[nH]c([C@@H]6CCCN6C(=O)[C@@H](NC(=O)OC)C(C)C)n5)cc4)cc3)c[nH]2)N(C(=O)[C@@H](NC(=O)OC)C(C)C)C1 [Example 252] | 0.01 to 1 | 0.0112 |
| C=C1C[C@@H](c2nc(-c3ccc(C#Cc4ccc5[nH]c([C@@H]6C[C@@]7(CC=CCO7)CN6C(=O)[C@@H](NC(=O)OC)C(C)C)nc5c4)cc3)c[nH]2)N(C(=O)[C@@H](NC(=O)OC)C(C)C)C1 [Example 327] | < 0.01 | – |
| COC(=O)N[C@H](C(=O)N1CCC[C@H]1c1nc(-c2ccc(C#Cc3ccc4[nH]c([C@@H]5CC(=C6CC6)CN5C(=O)[C@@H](NC(=O)OC)C(C)C)nc4c3)cc2)c[nH]1)C(C)C [Example 334] | 0.01 to 1 | 0.013 |
